Data reported in patent US6737383B1, “Herbicidal oxadiazolidines” (priority 1999, dated 2004).

Columns and labels:
[1] = tested on: bedstraw; assay: Test B pre/postemergence bedstraw; type: in vivo, Galium aparine; conditions: Preemergence
From the text: (§1) Seeds of bedstraw (Galium aparine), blackgrass (Alopecurus myosuroides), surinam grass (Brachiaria decumbens), cocklebur (Xanthium strumarium), corn (Zea mays), crabgrass (Digitaria sanguinalis), giant foxtail (Setaria faberii), morningglory (Ipomoea hederacea), pigweed (Amaranthus retroflexus), rape (Brassica napus), soybean (Glycine max), sugar beet (Beta vulgaris), velvetleaf (Abutilon theophrasti), wheat (Triticum aestivum), wild oat (Avena fatua) and purple nutsedge (Cyperus rotundus) tubers were planted and treated preemnergence with test chemicals formulated in a non-phytotoxic solvent mixture which included a surfactant.
(§2) At the same time, these crop and weed species were also treated with postemergence applications of test chemicals formulated in the same manner. Plants ranged in height from 2 to 18 cm (1- to 4-leaf stage) for postemergence treatments. Plant species in the flood test consisted of rice (Oryza sativa), smallflower flatsedge (Cyperus difformis), duck salad (Heteranthera limosa) and bamyardgrass (Echinochloa crus-galli) grown to the 2-leaf stage for testing. Treated plants and controls were maintained in a greenhouse for twelve to sixteen days, after which all species were compared to controls and visually evaluated. Plant response ratings, summarized in Table B, are based on a scale of 0 to 10 where 0 is no effect and 10 is complete control. A dash (−) response means no test result.

[2] = tested on: blackgrass; assay: Test B pre/postemergence blackgrass; type: in vivo, Alopecurus myosuroides
From the text: as §1, §2

[3] = tested on: surinam grass; assay: Test B pre/postemergence surinam grass; type: in vivo, Brachiaria decumbens
From the text: as §1, §2

[4] = tested on: cocklebur; assay: Test B pre/postemergence cocklebur; type: in vivo, Xanthium strumarium
From the text: as §1, §2

[5] = tested on: corn; assay: Test B pre/postemergence corn; type: in vivo, Zea mays
From the text: as §1, §2

[6] = tested on: crabgrass; assay: Test B pre/postemergence crabgrass; type: in vivo, Digitaria sanguinalis
From the text: as §1, §2

[7] = tested on: giant foxtail; assay: Test B pre/postemergence giant foxtail; type: in vivo, Setaria faberii
From the text: as §1, §2

[8] = tested on: morningglory; assay: Test B pre/postemergence morningglory; type: in vivo, Ipomoea hederacea
From the text: as §1, §2

[9] = tested on: pigweed; assay: Test B pre/postemergence pigweed; type: in vivo, Amaranthus retroflexus
From the text: as §1, §2

[10] = tested on: rape; assay: Test B pre/postemergence rape; type: in vivo, Brassica napus
From the text: as §1, §2

[11] = tested on: soybean; assay: Test B pre/postemergence soybean; type: in vivo, Glycine max
From the text: as §1, §2

[12] = tested on: sugar beet; assay: Test B pre/postemergence sugar beet; type: in vivo, Beta vulgaris; conditions: for Plant response rating, Sugarbeets: Rate 250 g/ha
From the text: as §1, §2

[13] = tested on: velvetleaf; assay: Test B pre/postemergence velvetleaf; type: in vivo, Abutilon theophrasti; conditions: for Plant response rating, Velvetleaf: Rate 250 g/ha
From the text: as §1, §2

[14] = tested on: wheat; assay: Test B pre/postemergence wheat; type: in vivo, Triticum aestivum; conditions: for Plant response rating, Wheat: Rate 250 g/ha
From the text: as §1, §2

[15] = tested on: wild oat; assay: Test B pre/postemergence wild oat; type: in vivo, Avena fatua; conditions: for Plant response rating, Wild oats: Rate 250 g/ha
From the text: as §1, §2

[16] = tested on: purple nutsedge; assay: Test B pre/postemergence purple nutsedge; type: in vivo, Cyperus rotundus
From the text: as §1, §2

[17] = Postemergence, Rate 62 g/ha, scale 0 to 10, 0 is no effect, 10 is complete control
[18] = Postemergence, Rate 125 g/ha, scale of 0 to 10 where 0 is no effect and 10 is complete control
[19] = Postemergence, Rate 250 g/ha, scale 0 to 10, 0 no effect, 10 complete control
[20] = Preemergence, Rate 62 g/ha, scale 0 to 10 (0 no effect, 10 complete control)
[21] = Preemergence, Rate 125 g/ha, scale 0 to 10 (0 no effect, 10 complete control)
[22] = Preemergence, Rate 250 g/ha, scale of 0 to 10 where 0 is no effect and 10 is complete control
[23] = Preemergence, Rate 500 g/ha, scale 0 (no effect) to 10 (complete control)
[24] = Rate 500 g/ha, Postemergence, scale 0 to 10, 0 no effect, 10 complete control
[25] = Rate 250 g/ha, Postemergence, scale 0 to 10, 0 is no effect, 10 is complete control
[26] = Preemergence, Rate 125 g/ha, 0 is no effect, 10 is complete control
[27] = Preemergence, scale of 0 to 10 where 0 is no effect and 10 is complete control
[28] = Postemergence, scale 0 to 10, 0 is no effect, 10 is complete control

## CCCn1c(=O)on(C(=O)N(c2ccccc2)C(C)C)c1=O [Compound 92]
[1]; Rate 62 g/ha, scale 0 to 10 (0 no effect, 10 complete control)
  Bedstraw plant response rating: 0
[1]; Rate 125 g/ha, scale 0 to 10 (0 no effect, 10 complete control)
  Plant response rating, Bedstraw: 0
[1]; Rate 250 g/ha, scale of 0 to 10 where 0 is no effect and 10 is complete control
  Plant response rating, Bedstraw: 0
[1]; Rate 500 g/ha, scale 0 (no effect) to 10 (complete control)
  Bedstraw plant response rating: 1
[2]; [17]
  Blackgrass plant response rating: 7
[2]; [18]
  Blackgrass plant response rating: 7
[2]; [19]
  Blackgrass plant response rating: 7
[2]; [20]
  Blackgrass plant response rating: 9
[2]; [21]
  Plant response rating, Blackgrass: 10
[2]; [22]
  Plant response rating, Blackgrass: 10
[2]; [23]
  Blackgrass plant response rating: 10
[2]; [24]
  Blackgrass plant response rating: 8
[3]; [17]
  B. signalgrass plant response rating: 3
[3]; [19]
  B. signalgrass plant response rating: 7
[3]; [20]
  B. signalgrass plant response rating: 10
[3]; [22]
  Plant response rating, B. signalgrass: 10
[3]; Rate 125 g/ha, Postemergence, scale 0 to 10, 0 no effect, 10 complete control
  B. signalgrass plant response rating: 5
[3]; Rate 500 g/ha, Postemergence, scale of 0 to 10 where 0 is no effect and 10 is complete control
  B. signalgrass plant response rating: 7
[4]; [17]
  Cocklebur plant response rating: 0
[4]; [18]
  Cocklebur plant response rating: 1
[4]; [19]
  Cocklebur plant response rating: 2
[4]; [20]
  Cocklebur plant response rating: 0
[4]; [22]
  Plant response rating, Cocklebur: 0
[4]; [24]
  Cocklebur plant response rating: 3
[5]; [17]
  Corn plant response rating: 0
[5]; [18]
  Corn plant response rating: 0
[5]; [19]
  Corn plant response rating: 0
[5]; [20]
  Corn plant response rating: 0
[5]; [21]
  Plant response rating, Corn: 2
[5]; [22]
  Plant response rating, Corn: 5
[5]; [23]
  Corn plant response rating: 9
[5]; [24]
  Corn plant response rating: 4
[6]; [17]
  Crabgrass plant response rating: 6
[6]; [18]
  Crabgrass plant response rating: 8
[6]; [19]
  Crabgrass plant response rating: 9
[6]; [20]
  Crabgrass plant response rating: 8
[6]; [21]
  Plant response rating, Crabgrass: 10
[6]; [22]
  Plant response rating, Crabgrass: 8
[6]; [23]
  Crabgrass plant response rating: 10
[6]; [24]
  Crabgrass plant response rating: 9
[7]; [17]
  Giant foxtail plant response rating: 8
[7]; [18]
  Giant foxtail plant response rating: 8
[7]; [19]
  Giant foxtail plant response rating: 9
[7]; [20]
  Giant foxtail plant response rating: 10
[7]; [21]
  Plant response rating, Giant foxtail: 10
[7]; [22]
  Plant response rating, Giant foxtail: 10
[7]; [23]
  Giant foxtail plant response rating: 10
[7]; [24]
  Giant foxtail plant response rating: 9
[8]; [17]
  Morningglory plant response rating: 7
[8]; [18]
  Morningglory plant response rating: 8
[8]; [19]
  Morningglory plant response rating: 10
[8]; [20]
  Morningglory plant response rating: 0
[8]; [21]
  Plant response rating, Morningglory: 0
[8]; [22]
  Plant response rating, Morningglory: 0
[8]; [23]
  Morningglory plant response rating: 3
[8]; [24]
  Morningglory plant response rating: 10
[9]; [17]
  Redroot pigweed plant response rating: 2
[9]; [18]
  Redroot pigweed plant response rating: 3
[9]; [20]
  Redroot pigweed plant response rating: 2
[9]; [21]
  Plant response rating, Redroot pigweed: 7
[9]; [22]
  Plant response rating, Redroot pigweed: 9
[9]; [23]
  Redroot pigweed plant response rating: 10
[9]; [25]
  Plant response rating, Redroot pigweed: 4
[9]; [24]
  Redroot pigweed plant response rating: 5
[10]; [17]
  Rape plant response rating: 2
[10]; [18]
  Rape plant response rating: 3
[10]; [19]
  Rape plant response rating: 4
[10]; [20]
  Rape plant response rating: 4
[10]; [21]
  Plant response rating, Rape: 9
[10]; [22]
  Plant response rating, Rape: 10
[10]; [23]
  Rape plant response rating: 10
[10]; [24]
  Rape plant response rating: 6
[11]; [17]
  Soybean plant response rating: 3
[11]; [18]
  Soybean plant response rating: 3
[11]; [20]
  Soybean plant response rating: 0
[11]; [21]
  Plant response rating, Soybean: 3
[11]; [22]
  Plant response rating, Soybean: 4
[11]; [23]
  Soybean plant response rating: 9
[11]; [25]
  Plant response rating, Soybean: 3
[11]; [24]
  Soybean plant response rating: 5
[12]; [17]
  Sugarbeets plant response rating: 1
[12]; [18]
  Sugarbeets plant response rating: 4
[12]; [20]
  Sugarbeets plant response rating: 2
[12]; [26]
  Sugarbeets plant response rating (0 to 10 scale): 6
[12]; [27]
  Plant response rating, Sugarbeets: 8
[12]; [23]
  Sugarbeets plant response rating: 9
[12]; [28]
  Plant response rating, Sugarbeets: 6
[12]; [24]
  Sugarbeets plant response rating: 6
[13]; [17]
  Velvetleaf plant response rating: 0
[13]; [18]
  Velvetleaf plant response rating: 0
[13]; [20]
  Velvetleaf plant response rating: 4
[13]; [26]
  Velvetleaf plant response rating (0 to 10 scale): 6
[13]; [27]
  Plant response rating, Velvetleaf: 6
[13]; [23]
  Velvetleaf plant response rating: 8
[13]; [28]
  Plant response rating, Velvetleaf: 0
[14]; [17]
  Wheat plant response rating: 0
[14]; [18]
  Wheat plant response rating: 2
[14]; [20]
  Wheat plant response rating: 3
[14]; [26]
  Wheat plant response rating (0 to 10 scale): 6
[14]; [27]
  Plant response rating, Wheat: 7
[14]; [23]
  Wheat plant response rating: 7
[14]; [28]
  Plant response rating, Wheat: 5
[14]; [24]
  Wheat plant response rating: 6
[15]; [17]
  Wild oats plant response rating: 0
[15]; [18]
  Wild oats plant response rating: 1
[15]; [20]
  Wild oats plant response rating: 7
[15]; [26]
  Wild oats plant response rating (0 to 10 scale): 8
[15]; [27]
  Plant response rating, Wild oats: 9
[15]; [23]
  Wild oats plant response rating: 10
[15]; [28]
  Plant response rating, Wild oats: 1
[15]; [24]
  Wild oats plant response rating: 5
[16]; [17]
  Nutsedge plant response rating: 0
[16]; [18]
  Nutsedge plant response rating: 0
[16]; [19]
  Nutsedge plant response rating: 0
[16]; [20]
  Nutsedge plant response rating: 0
[16]; [21]
  Plant response rating, Nutsedge: 0
[16]; [22]
  Plant response rating, Nutsedge: 0
[16]; [23]
  Nutsedge plant response rating: 0
[16]; [24]
  Nutsedge plant response rating: 2
